This is an account of results in patent US20240409609A1, “REVERSIBLE LYSINE COVALENT MODIFIERS OF EGFR AND USES THEREOF” (Terremoto Biosciences, Inc., priority 2021, published 2024).

One experiment deals with EGFR WT in Ba/F3 cells (Homo sapiens (Human), UniProt P00533). In words: Ba/F3 pEGFR assay (AlphaLISA p-EGFR Tyr1068). Format: cell-based. The note with it: 2 hrs treatment, media supplemented with EGF. The procedure: Cellular activity was determined using the Ba/F3 system for studying oncogenic mutant kinases (Warmuth 2007). […] Transduced cells were maintained in RPMI 1640 with 10% FBS. EGFR WT transduced cells were grown in media supplemented with EGF. To assay cellular activity of inhibitors, cells were treated with inhibitor from 1000X DMSO stock dilutions and incubated for 2 hrs at 37° C. 5% CO2. Subsequently, p-EGFR (Tyr1068) was quantified using a commercial sandwich immunoassay (PerkinElmer AlphaLISA SureFire assay; ALSU-PEGFR) according to the manufacturer's instructions. […] Curr Opin Oncol 19, 55-60 (2007), which is incorporated herein in its entirety.
Chain of EGFR WT in Ba/F3 cells (P00533 25-1210): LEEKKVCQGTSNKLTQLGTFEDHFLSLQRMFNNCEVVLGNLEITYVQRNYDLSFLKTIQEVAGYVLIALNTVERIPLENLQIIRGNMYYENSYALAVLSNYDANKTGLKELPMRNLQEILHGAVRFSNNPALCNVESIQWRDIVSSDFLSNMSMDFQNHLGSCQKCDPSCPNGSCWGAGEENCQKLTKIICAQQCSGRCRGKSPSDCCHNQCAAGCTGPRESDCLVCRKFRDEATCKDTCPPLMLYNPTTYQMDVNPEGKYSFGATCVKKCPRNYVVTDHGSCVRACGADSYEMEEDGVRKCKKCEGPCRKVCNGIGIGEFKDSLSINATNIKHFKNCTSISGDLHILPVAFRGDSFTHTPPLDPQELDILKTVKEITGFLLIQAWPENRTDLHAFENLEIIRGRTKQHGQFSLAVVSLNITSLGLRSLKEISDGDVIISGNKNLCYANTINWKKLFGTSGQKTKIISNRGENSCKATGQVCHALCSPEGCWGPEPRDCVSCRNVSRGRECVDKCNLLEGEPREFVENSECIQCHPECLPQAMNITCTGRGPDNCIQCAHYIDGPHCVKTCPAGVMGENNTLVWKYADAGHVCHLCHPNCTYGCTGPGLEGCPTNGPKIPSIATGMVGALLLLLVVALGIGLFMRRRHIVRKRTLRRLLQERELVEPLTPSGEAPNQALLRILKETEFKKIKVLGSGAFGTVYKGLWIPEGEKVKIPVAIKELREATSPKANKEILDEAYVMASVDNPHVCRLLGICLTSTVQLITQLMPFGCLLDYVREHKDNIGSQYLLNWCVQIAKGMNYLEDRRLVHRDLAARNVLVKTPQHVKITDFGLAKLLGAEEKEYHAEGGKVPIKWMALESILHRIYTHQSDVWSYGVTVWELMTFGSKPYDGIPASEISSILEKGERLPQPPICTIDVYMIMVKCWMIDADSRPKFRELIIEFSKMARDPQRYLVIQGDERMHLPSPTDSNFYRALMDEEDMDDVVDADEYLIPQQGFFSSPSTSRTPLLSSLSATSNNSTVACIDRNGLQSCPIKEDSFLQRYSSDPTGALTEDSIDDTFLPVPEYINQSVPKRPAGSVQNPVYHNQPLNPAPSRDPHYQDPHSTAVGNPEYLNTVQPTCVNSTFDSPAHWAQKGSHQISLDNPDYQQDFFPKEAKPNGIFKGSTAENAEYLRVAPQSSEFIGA
On the technique in general: Bead proximity is the source of the signal in Alpha formats.

Another experiment concerns the target EGFR WT (Homo sapiens (Human), UniProt P00533). In words: EGFR biochemical assay (AssayQuant chelation-enhanced fluorescence). The note with it: 30 min preincubation, reaction time 360 min.

Structures are written as SMILES. A value given as a limit tells only on which side of the number the result lay.

Chain of EGFR WT (P00533 668-1210): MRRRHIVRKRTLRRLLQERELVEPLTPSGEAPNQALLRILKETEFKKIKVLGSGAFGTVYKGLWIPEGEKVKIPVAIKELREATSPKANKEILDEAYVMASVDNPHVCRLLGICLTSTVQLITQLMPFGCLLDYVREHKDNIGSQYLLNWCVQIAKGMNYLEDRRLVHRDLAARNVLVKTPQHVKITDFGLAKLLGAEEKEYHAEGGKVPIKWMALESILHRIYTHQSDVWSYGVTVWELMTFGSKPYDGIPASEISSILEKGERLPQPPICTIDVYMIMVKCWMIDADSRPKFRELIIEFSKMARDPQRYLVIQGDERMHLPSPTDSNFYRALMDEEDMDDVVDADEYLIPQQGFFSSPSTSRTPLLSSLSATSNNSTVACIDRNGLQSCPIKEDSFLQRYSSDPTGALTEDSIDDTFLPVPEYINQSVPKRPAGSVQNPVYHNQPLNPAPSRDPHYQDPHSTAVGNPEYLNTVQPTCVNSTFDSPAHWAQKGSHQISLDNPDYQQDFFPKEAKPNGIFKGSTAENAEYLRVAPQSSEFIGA

The IC50 is the concentration at which inhibition is half-maximal. With `COc1cc(N2CCC(N3CCN(C)CC3)CC2)ccc1Nc1ncc(-c2ccc(C=O)c(O)c2)c(Nc2ccccc2)n1` [Compound 4], the values for the IC50 at EGFR WT in Ba/F3 cells and at EGFR WT were greater than 10000 nM and greater than 1000 nM, respectively.

`COc1cc(N2CCC(N3CCN(C)CC3)CC2)ccc1Nc1ncc(-c2cccc(C=O)c2O)c(Nc2ccccc2)n1` [Compound 5]: the results for the IC50 against EGFR WT in Ba/F3 cells and at EGFR WT were greater than 10000 nM and 398 nM, respectively.

Take `COc1cc(N(C)CCN(C)C)ccc1Nc1ncc(-c2ccc(O)c(C=O)c2)c(-c2cn(C)c3ccccc23)n1` [Compound 8]: the IC50 against EGFR WT in Ba/F3 cells was greater than 10000 nM; at EGFR WT it was greater than 1000 nM.

Regarding `COc1cc(N2CCC(N3CCN(C)CC3)CC2)ccc1Nc1ncc(-c2cc(F)c(O)c(C=O)c2)c(Nc2ccccc2)n1` [Compound 9], the IC50 at EGFR WT in Ba/F3 cells was found to be 42.5 nM; on EGFR WT, 4.89 nM.

Turning to `COc1cc(N2CCC(N3CCN(C)CC3)CC2)ccc1Nc1ncc(-c2ccc(O)c(C=O)c2F)c(Nc2ccccc2)n1` [Compound 11], the values for the IC50 against EGFR WT in Ba/F3 cells and at EGFR WT were 70.8 nM and 11 nM, respectively.

For `COc1cc(N2CCC(N3CCN(C)CC3)CC2)ccc1Nc1ncc(-c2cc(C=O)c(O)cc2OC)c(Nc2ccccc2)n1` [Compound 13], the IC50 against EGFR WT in Ba/F3 cells is greater than 10000 nM; on EGFR WT, 94 nM.

For `COc1cc(N2CCC(N3CCN(C)CC3)CC2)ccc1Nc1ncc(-c2cccc(C=O)c2)c(Nc2ccccc2)n1` [Compound 14], the results for the IC50 on EGFR WT in Ba/F3 cells and on EGFR WT were greater than 10000 nM and 63.4 nM, respectively.

`CNc1nc(Nc2ccc(N3CCC(N4CCN(C)CC4)CC3)cc2OC)ncc1-c1ccc(O)c(C=O)c1` [Compound 15]: the IC50 at EGFR WT in Ba/F3 cells was found to be 9650 nM; on EGFR WT, 19.1 nM.

In the case of `COc1cc(N2CCC(N3CCN(C)CC3)CC2)ccc1Nc1ncc(C#Cc2cccc(C=O)c2O)c(Nc2ccccc2)n1` [Compound 16], the IC50 on EGFR WT came to 36.4 nM.

On to `COc1cc(N2CCC(N3CCN(C)CC3)CC2)ccc1Nc1ncc(C#Cc2ccc(O)c(C=O)c2)c(Nc2ccccc2)n1` [Compound 17], for which, at EGFR WT, the IC50 was found to be 98.4 nM.

As for `COc1cc(N2CCC(N3CCN(C)CC3)CC2)ccc1Nc1ncc(C#Cc2cccc(O)c2C=O)c(Nc2ccccc2)n1` [Compound 18], the IC50 at EGFR WT came to 9.08 nM.

For the molecule `COc1cc(N2CCC(N3CCN(C)CC3)CC2)ccc1Nc1ncc(Cl)c(Oc2ccccc2-c2cccc(O)c2C=O)n1` [Compound 19], at EGFR WT, the half-maximal inhibitory concentration (IC50) was greater than 1000 nM.

For the molecule `COc1cc(N2CCC(N3CCN(C)CC3)CC2)ccc1Nc1ncc(-c2ccc(NC(C)=O)c(C=O)c2)c(Nc2ccccc2)n1` [Compound 20], the IC50 at EGFR WT in Ba/F3 cells was greater than 10000 nM; at EGFR WT, greater than 1000 nM.

Consider `COc1cc(N2CCC(N3CCN(C)CC3)CC2)ccc1Nc1ncc(-c2ccc(O)c(C=O)c2)c(Oc2ccccc2)n1` [Compound 21], for which the IC50 on EGFR WT came to 271 nM.

Regarding `COc1cc(N2CCC(N3CCN(C)CC3)CC2)ccc1Nc1ncc(-c2ccc(O)c(C=O)c2)c(-c2ccccc2)n1` [Compound 22], the IC50 at EGFR WT stood at 211 nM.

Take `COc1cc(N2CCC(N3CCN(C)CC3)CC2)ccc1Nc1ncc(-c2ccc(C=O)c(O)c2)c(Nc2ccccc2P(C)(C)=O)n1` [Compound 24]: on EGFR WT, the IC50 amounted to 10.8 nM.

As for `COc1cc(N2CCC(N3CCN(C)CC3)CC2)ccc1Nc1ncc(Cl)c(Nc2cccc(-c3cccc(C=O)c3O)c2)n1` [Compound 25], the IC50 at EGFR WT is 87.5 nM.

Consider `COc1cc(N2CCC(N3CCN(C)CC3)CC2)ccc1Nc1ncc(Cl)c(Nc2cccc(-c3cccc(O)c3C=O)c2)n1` [Compound 26], for which, at EGFR WT, the IC50 was 872 nM.

`COc1cc(N2CCC(N3CCN(C)CC3)CC2)ccc1Nc1ncc(-c2ccc(O)c(C=O)c2)c(Nc2ccccc2P(C)(C)=O)n1` [Compound 27]: on EGFR WT, the IC50 is greater than 1000 nM.

With `COc1cc(N(C)CCN(C)C)c(NC(C)=O)cc1Nc1nccc(-c2cn(Cc3cccc(O)c3C=O)c3ccccc23)n1` [Compound 28], the IC50 against EGFR WT in Ba/F3 cells was greater than 10000 nM; on EGFR WT, greater than 1000 nM.

Regarding `COc1cc(N(C)CCN(C)C)c(NC(C)=O)cc1Nc1nccc(-c2cn(Cc3ccc(C=O)c(O)c3)c3ccccc23)n1` [Compound 29], the results for the IC50 against EGFR WT in Ba/F3 cells and on EGFR WT were greater than 10000 nM and greater than 1000 nM, respectively.

For `COc1cc(N(C)CCN(C)C)c(NC(C)=O)cc1Nc1nccc(-c2cn(Cc3ccc(O)c(C=O)c3)c3ccccc23)n1` [Compound 30], the IC50 on EGFR WT turned out to be 255 nM.

Consider `COc1cc(N(C)CCN(C)C)ccc1Nc1ncc(Cl)c(-c2cn(Cc3cccc(C=O)c3O)c3ccccc23)n1` [Compound 31], for which the IC50 on EGFR WT is greater than 1000 nM.

In the case of `COc1cc(N(C)CCN(C)C)ccc1Nc1ncc(Cl)c(-c2cn(Cc3cccc(O)c3C=O)c3ccccc23)n1` [Compound 32], the concentration for half-maximal inhibition (IC50) at EGFR WT was determined as 526 nM.

For the molecule `COc1cc(N2CCC(N3CCN(C)CC3)CC2)ccc1Nc1ncc(Cl)c(Nc2ccc(NCc3ccc(C=O)c(O)c3)cc2)n1` [Compound 33], on EGFR WT, the IC50 was 76.5 nM.

As for `COc1cc(N2CCC(N3CCN(C)CC3)CC2)ccc1Nc1ncc(Cl)c(Nc2ccccc2-c2c(OC)ccc(C=O)c2O)n1` [Compound 34], at EGFR WT, the IC50 came out at 278 nM.

For `COc1cc(N2CCC(N3CCN(C)CC3)CC2)ccc1Nc1ncc(Cl)c(Nc2ccc(O)c(C=O)c2)n1` [Compound 35], the results for the IC50 against EGFR WT in Ba/F3 cells and at EGFR WT were greater than 10000 nM and 292 nM, respectively.

As for `CC(C)c1ccc(N2CC(CS(C)(=O)=O)C2)c2cnc(Nc3ccnc(C#Cc4cccc(O)c4C=O)n3)cc12` [Compound 41], the IC50 at EGFR WT came to 22.2 nM.

As for `CC(C)c1ccc(N2CC(CS(C)(=O)=O)C2)c2cnc(Nc3ccnc(COc4cccc(O)c4C=O)n3)cc12` [Compound 42], the IC50 is greater than 10000 nM against EGFR WT in Ba/F3 cells and 181 nM on EGFR WT.

With `CC(C)c1ccc(N2CC(CS(C)(=O)=O)C2)c2cnc(Nc3ccnc(N(C)Cc4cccc(O)c4C=O)n3)cc12` [Compound 43], on EGFR WT, the IC50 was greater than 1000 nM.

Regarding `CC(C)c1ccc(N2CC(CS(C)(=O)=O)C2)c2cnc(Nc3ccnc(-n4cc(-c5cccc(O)c5C=O)cn4)n3)cc12` [Compound 44], the IC50 against EGFR WT in Ba/F3 cells came out at 6850 nM; at EGFR WT, 197 nM.

On to `CC(C)c1ccc(N2CC(CS(C)(=O)=O)C2)c2cnc(Nc3ccnc(N(C)CCc4cccc(O)c4C=O)n3)cc12` [Compound 45], for which the IC50 is greater than 10000 nM against EGFR WT in Ba/F3 cells and greater than 1000 nM on EGFR WT.

As to `CC(C)c1ccc(N2CC(CS(C)(=O)=O)C2)c2cnc(Nc3ccnc(-c4cccc(-c5cccc(O)c5C=O)c4)n3)cc12` [Compound 46], at EGFR WT, the IC50 was greater than 1000 nM.

For the molecule `CC(C)c1ccc(N2CC(CS(C)(=O)=O)C2)c2cnc(Nc3ccnc(-c4ccc(O)c(C=O)c4)n3)cc12` [Compound 47], the IC50 on EGFR WT was greater than 1000 nM.

Take `CC(C)c1ccc(N2CC(CS(C)(=O)=O)C2)c2cnc(Nc3ccnc(Oc4cccc(O)c4C=O)n3)cc12` [Compound 48]: the half-maximal inhibitory concentration (IC50) on EGFR WT in Ba/F3 cells was greater than 10000 nM; at EGFR WT it was greater than 1000 nM.

On to `CC(C)c1ccc(N2CC(CS(C)(=O)=O)C2)c2cnc(Nc3ccnc(N(C)Cc4cccc(C=O)c4O)n3)cc12` [Compound 49], for which the IC50 against EGFR WT in Ba/F3 cells is 2290 nM; on EGFR WT it was greater than 1000 nM.

Turning to `CC(C)c1ccc(N2CC(CS(C)(=O)=O)C2)c2cnc(Nc3ccnc(-c4cccc(C=O)c4O)n3)cc12` [Compound 50], the IC50 on EGFR WT is greater than 1000 nM.

Consider `CN1CCN(Cc2ccc3[nH]/c(=N\C(=O)c4cc(C#N)cc(Oc5cccc(O)c5C=O)c4)n(CC(C)(C)O)c3c2)CC1` [Compound 51], for which the IC50 amounted to 1900 nM against EGFR WT in Ba/F3 cells and 5.88 nM on EGFR WT.

For `CN1CCN(Cc2ccc3[nH]/c(=N\C(=O)c4cccc(Oc5cccc(O)c5C=O)c4)n(CC(C)(C)O)c3c2)CC1` [Compound 52], the IC50 came to 4860 nM against EGFR WT in Ba/F3 cells and 8.42 nM at EGFR WT.

Regarding `CN1CCN(Cc2ccc3[nH]/c(=N\C(=O)c4cc(F)cc(Oc5cccc(O)c5C=O)c4)n(CC(C)(C)O)c3c2)CC1` [Compound 53], the 50% inhibitory concentration (IC50) against EGFR WT in Ba/F3 cells is greater than 8180 nM; at EGFR WT, 5.97 nM.

Consider `CN1CCN(Cc2ccc3[nH]/c(=N\C(=O)c4cncc(Oc5cccc(O)c5C=O)c4)n(CC(C)(C)O)c3c2)CC1` [Compound 55], for which the figures for the IC50 on EGFR WT in Ba/F3 cells and on EGFR WT were 1430 nM and 5.33 nM, respectively.

On to `CN1CCN(c2ccc3[nH]/c(=N\C(=O)c4ccnc(Oc5cccc(O)c5C=O)c4)n(CC(C)(C)O)c3c2)CC1` [Compound 56], for which the IC50 came out at 763 nM against EGFR WT in Ba/F3 cells and 278 nM on EGFR WT.

Take `CN1CCN(Cc2ccc3[nH]/c(=N\C(=O)c4ccnc(C#Cc5c(F)ccc(O)c5C=O)c4)n(CC(C)(C)O)c3c2)CC1` [Compound 57]: the IC50 on EGFR WT in Ba/F3 cells was determined as 1770 nM; on EGFR WT it was 6.03 nM.

As to `CN1CCN(Cc2ccc3[nH]/c(=N\C(=O)c4cc(C=O)cc(Oc5cccc(O)c5C=O)c4)n(CC(C)(C)O)c3c2)CC1` [Compound 58], the IC50 at EGFR WT in Ba/F3 cells was greater than 10000 nM; at EGFR WT, 10.3 nM.

On to `Cc1ccc(C(=O)/N=c2\[nH]c3ccc(CN4CCN(C)CC4)cc3n2CC(C)(C)O)cc1Oc1cccc(O)c1C=O` [Compound 59], for which the figures for the IC50 on EGFR WT in Ba/F3 cells and on EGFR WT were 1130 nM and 9.32 nM, respectively.

Regarding `CN1CCN(Cc2ccc3[nH]/c(=N\C(=O)c4cc(F)nc(Oc5cccc(O)c5C=O)c4)n(CC(C)(C)O)c3c2)CC1` [Compound 60], the IC50 at EGFR WT in Ba/F3 cells was 2850 nM; on EGFR WT it was 8.29 nM.

Consider `Cc1cc(Oc2cccc(O)c2C=O)cc(C(=O)/N=c2\[nH]c3ccc(CN4CCN(C)CC4)cc3n2CC(C)(C)O)c1` [Compound 61], for which the IC50 against EGFR WT in Ba/F3 cells was greater than 10000 nM; on EGFR WT it was 17.9 nM.

Take `CN1CCN(Cc2ccc3[nH]/c(=N\C(=O)c4ccnc(C#Cc5cccc(O)c5C=O)c4)n(CC(C)(C)O)c3c2)CC1` [Compound 62]: the IC50 against EGFR WT in Ba/F3 cells came out at 3360 nM; on EGFR WT, 7.05 nM.

Consider `CN1CCN(Cc2ccc3[nH]/c(=N\C(=O)c4ccnc(N(C)Cc5cccc(O)c5C=O)c4)n(CC(C)(C)O)c3c2)CC1` [Compound 96], for which, on EGFR WT, the IC50 amounted to 508 nM.

In the case of `CC(C)(O)Cn1/c(=N/C(=O)c2ccnc(C#Cc3cccc(C=O)c3O)c2)[nH]c2ccccc21` [Compound 137], the 50% inhibitory concentration (IC50) on EGFR WT was greater than 1000 nM.
